For series [1], the target named is MurD (Escherichia coli, UniProt P14900). Briefly: 1H/13C HSQC NMR study of ligand binding. The following applies: chemical shift perturbations, without and with 2 mM AMP-PCP. The protocol:
The nuclear magnetic resonance (NMR) spectra were recorded at 25 °C on a spectrometer (DirectDrive 800 MHz; Varian, Slovenian NMR centre at National Institute of Chemistry) equipped with a cryoprobe. The pulse sequences provided in the Varian BioPack library of pulse programmes was used. The samples were prepared in 90% H2O/10% DMSO-d6 buffer containing 20 mM HEPES, 7 mM (NH4)2SO4, 3.5 mM MgCl2, and 2 mM dithiothreitol, pH 7.2. Here, 0.07 mM MurD that was selectively labelled with ^13 C at the methyl groups of Ile (δ1 only), Val and Leu was used. The protein was titrated using compound 1 in MurD:ligand molar ratios of 0.5, 1, 2, 4 and 8, without and with 2 mM β,γ-methyleneadenosine 5'-triphosphate (AMP–PCP). […] The final concentration of DMSO-d6 was 12% (v/v). The variation of DMSO from 10 to 12% (v/v) affects the chemical shift perturbations by <0.02 ppm[31].
The heteronuclear single quantum coherence (HSQC) spectra for ^1H/^13C were acquired with 1024 data points in t2, 32 scans, 64 complex points in t1, and relaxation delay of 1 s. […] The spectra were processed and analysed with the Felix 2007 software package (Felix NMR Inc., Laboratory of Biomolecular Structure at National Institute of Chemistry). […] The combined ^1H/^13C chemical shift perturbations (Δδ) were calculated from the ^1H and ^13C chemical shift perturbations using Equation (1)[32]: (1) Δδ=((Δδ^1H)^2+(0.252×Δδ^13C)^2)^1/2. […]

The target in series [2] is MurD from E. coli (Escherichia coli, UniProt P14900). Briefly: Steady-state kinetic analysis on MurD. The following applies: for Ki: Ki (µM). Format: biochemical. As to the method:
For compound 1, Ki values were determined against MurD from E. coli. Ki determinations were performed under similar conditions to those described for the MurD inhibition assay, where different concentration of one substrate and a fixed concentration of the other two were used. First, the concentration of UMA was varied (10, 20, 40, 80 µM) at fixed ATP (400 µM) and D-Glu (100 µM), then the concentration of D-Glu was varied (50, 100, 200, 400 µM) at fixed ATP (400 µM) and UMA (80 µM), and finally, the concentration of ATP was varied (100, 200, 400, 800 µM) at fixed UMA (80 µM) and D-Glu (100 µM). The concentrations of 1 were 0, 15, 30, 60, 90, 120, 180 and 250 µM. After a 15 min incubation, 100 µM Biomol green reagent was added, and the absorbance was read at 650 nm after 5 min. All of the experiments were run in triplicate. The data were analysed using the SigmaPlot 12.0 software. The initial velocities were fitted to competitive, non-competitive, uncompetitive and mixed enzyme inhibition. The Ki and mode of inhibition from the best ranking model were used, as provided by the software.

Series [3] concerns the target E. coli MurC (Escherichia coli, UniProt P17952). Briefly: Malachite green inhibition assay, MurC. In kind it is biochemical.
A short description of series [4]: Solubility observations in assay mixtures and NMR buffer. In kind it is physicochemical. The following applies: NMR buffer, MurD:ligand molar ratio 1:8, 0.07 mM MurD.

Sequence of MurD from E. coli (P14900 whole entry): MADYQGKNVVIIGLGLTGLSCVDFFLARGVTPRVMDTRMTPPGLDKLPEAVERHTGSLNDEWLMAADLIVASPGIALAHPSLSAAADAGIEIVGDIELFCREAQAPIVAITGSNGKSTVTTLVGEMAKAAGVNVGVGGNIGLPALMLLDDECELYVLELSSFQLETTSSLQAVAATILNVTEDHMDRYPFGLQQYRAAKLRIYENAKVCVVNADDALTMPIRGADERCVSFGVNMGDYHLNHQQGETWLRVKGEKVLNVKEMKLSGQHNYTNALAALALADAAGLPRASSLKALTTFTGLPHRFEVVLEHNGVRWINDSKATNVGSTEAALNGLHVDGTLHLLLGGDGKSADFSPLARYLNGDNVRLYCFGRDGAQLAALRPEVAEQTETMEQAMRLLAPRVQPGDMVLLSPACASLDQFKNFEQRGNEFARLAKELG
Sequence of E. coli MurC (P17952 whole entry): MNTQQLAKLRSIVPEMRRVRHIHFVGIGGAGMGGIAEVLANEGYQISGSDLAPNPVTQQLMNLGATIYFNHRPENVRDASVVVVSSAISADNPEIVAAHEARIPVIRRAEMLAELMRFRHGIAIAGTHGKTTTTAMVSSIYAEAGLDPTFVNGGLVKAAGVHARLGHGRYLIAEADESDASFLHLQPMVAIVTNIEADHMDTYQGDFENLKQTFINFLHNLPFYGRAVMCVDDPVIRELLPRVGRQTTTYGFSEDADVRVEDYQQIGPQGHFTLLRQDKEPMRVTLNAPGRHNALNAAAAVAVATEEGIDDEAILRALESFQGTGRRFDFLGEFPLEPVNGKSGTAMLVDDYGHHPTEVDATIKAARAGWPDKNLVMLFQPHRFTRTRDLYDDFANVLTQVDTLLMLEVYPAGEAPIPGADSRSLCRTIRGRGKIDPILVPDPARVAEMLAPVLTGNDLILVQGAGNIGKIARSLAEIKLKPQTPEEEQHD
Sequence of MurD (P14900 whole entry): as the sequence (P14900 whole entry) above

In the case of `Cc1cc(-c2ccco2)cc(C)c1/C=C/c1cncc(-c2nn[nH]n2)c1` [Compound 1], the “binding site on MurD” value in series [1] was “binds to the D-Glu binding site”. Further, the Ki (as a rule, the equilibrium dissociation constant of an inhibitor or competing ligand from its target) in series [2] (substrate ATP varied, fixed D-Glu 100 µM, UMA 80 µM) worked out at 18.7 ± 2.6 µM; in series [2] (substrate D-Glu varied, fixed ATP 400 µM, UMA 80 µM), 65.5 ± 4.9 µM; in series [2] (substrate UMA varied, fixed ATP 400 µM, D-Glu 100 µM), 14.8 ± 11.2 µM. Besides, the Inhibition mechanism entry is “Mixed (full)” in series [2] (versus substrate ATP), “Competitive (full)” in series [2] (versus substrate D-Glu) and “Mixed (partial)” in series [2] (versus substrate UMA). Moreover, the remaining activity at 100 µM in series [3] (0.25 h, Table S1, PKIS screening, read-out: RA [%] at 100 µM MurC) turned out to be 70%. The IC50 – broadly, the midpoint of a concentration-inhibition curve – in series [3] (Table 1, read-out: MurC IC50) turned out to be 368 µM. Further, the “RA (%) MurC” value in series [3] (Table S3, aza stilbene compounds) is recorded as 70%. Also, in series [3] (residual activity at 100 µM compound, Table 1), the “MurC RA [%]” value is given as 70%. For the same compound, the solubility result in series [4] was “not completely dissolved”.

Values taken from publication PMC6522912, “Evaluation of the published kinase inhibitor set to identify multiple inhibitors of bacterial ATP-dependent mur ligases” (Journal of Enzyme Inhibition and Medicinal Chemistry, 2019).
